# Laboratory results taken from ChEMBL document CHEMBL5154943, “Crystallography-Guided Optimizations of the Keap1-Nrf2 Inhibitors on the Solvent Exposed Region: From Symmetric to Asymmetric Naphthalenesulfonamides” (J Med Chem, 2022).
# Activity calls are given as the source filed them. The calls are words filed in the database; no cut-off is given here.
# How the values were obtained:
# Peritoneal macrophage [1] = assay: Cytotoxicity against mouse peritoneal macrophages assessed as reduction in cell viability measured after 24 hrs by Cell Titer-Blue assay; format: functional
# Keap1/Nrf2 = Keap1/Nrf2 (Homo sapiens, UniProt Q14145); assay: Inhibition of recombinant N-terminal His6-tagged human Keap1-Nrf2 (322 to 609 residues) (unknown origin) protein-protein interaction expressed in Escherichia coli (DE3) incubated for 60 mins by fluorescence anisotropy assay
# [2] = Aqueous solubility of the compound in PBS at pH 7 after 24 hrs by HPLC-UV analysis; format: physicochemical
# [3] = Aqueous solubility of the compound in PBS at pH 7.4 after 24 hrs by HPLC-UV analysis; format: physicochemical
# [4] = Aqueous solubility of the compound in PBS at pH 2 after 24 hrs by HPLC-UV analysis; format: physicochemical
# Peritoneal macrophage [5] = assay: Antiinflammatory activity against LPS-induced mouse peritoneal macrophage assessed as suppression of NO level at 10 uM pretreated with LPS followed by compound addition and measured after 24 hrs by Griess reagent based assay; format: functional, cell-based
# Peritoneal macrophage [6] = assay: Antiinflammatory activity against LPS-induced mouse peritoneal macrophage assessed as suppression of ROS level at 10 uM pretreated with LPS followed by compound addition and measured after 6 hrs by DCFH-DA staining based fluorescence analysis; format: functional, cell-based
# Peritoneal macrophage [7] = assay: Antiinflammatory activity against LPS-induced mouse peritoneal macrophage assessed as inhibition of TNF alpha level at 10 uM after 4 hrs by ELISA method; format: functional, cell-based
# Keap1/Nrf2, sequence (Q16236 whole entry, the tested form may be a part): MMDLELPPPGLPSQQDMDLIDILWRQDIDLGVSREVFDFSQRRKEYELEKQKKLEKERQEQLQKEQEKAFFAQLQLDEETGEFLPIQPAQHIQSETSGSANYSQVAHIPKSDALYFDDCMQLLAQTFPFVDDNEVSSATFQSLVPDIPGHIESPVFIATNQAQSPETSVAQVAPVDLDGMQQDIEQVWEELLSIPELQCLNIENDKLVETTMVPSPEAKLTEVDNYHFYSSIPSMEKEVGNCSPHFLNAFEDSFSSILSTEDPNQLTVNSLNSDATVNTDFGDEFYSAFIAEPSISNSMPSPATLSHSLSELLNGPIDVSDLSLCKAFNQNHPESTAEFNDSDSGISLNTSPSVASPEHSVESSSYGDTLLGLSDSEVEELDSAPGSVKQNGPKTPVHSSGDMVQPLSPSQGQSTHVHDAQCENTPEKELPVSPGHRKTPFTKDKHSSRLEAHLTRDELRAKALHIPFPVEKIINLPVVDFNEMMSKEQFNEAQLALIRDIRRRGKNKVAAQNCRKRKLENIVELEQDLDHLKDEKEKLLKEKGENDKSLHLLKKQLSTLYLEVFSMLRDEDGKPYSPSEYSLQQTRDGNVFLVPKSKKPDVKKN
# Keap1/Nrf2, sequence (Q14145 whole entry, the tested form may be a part): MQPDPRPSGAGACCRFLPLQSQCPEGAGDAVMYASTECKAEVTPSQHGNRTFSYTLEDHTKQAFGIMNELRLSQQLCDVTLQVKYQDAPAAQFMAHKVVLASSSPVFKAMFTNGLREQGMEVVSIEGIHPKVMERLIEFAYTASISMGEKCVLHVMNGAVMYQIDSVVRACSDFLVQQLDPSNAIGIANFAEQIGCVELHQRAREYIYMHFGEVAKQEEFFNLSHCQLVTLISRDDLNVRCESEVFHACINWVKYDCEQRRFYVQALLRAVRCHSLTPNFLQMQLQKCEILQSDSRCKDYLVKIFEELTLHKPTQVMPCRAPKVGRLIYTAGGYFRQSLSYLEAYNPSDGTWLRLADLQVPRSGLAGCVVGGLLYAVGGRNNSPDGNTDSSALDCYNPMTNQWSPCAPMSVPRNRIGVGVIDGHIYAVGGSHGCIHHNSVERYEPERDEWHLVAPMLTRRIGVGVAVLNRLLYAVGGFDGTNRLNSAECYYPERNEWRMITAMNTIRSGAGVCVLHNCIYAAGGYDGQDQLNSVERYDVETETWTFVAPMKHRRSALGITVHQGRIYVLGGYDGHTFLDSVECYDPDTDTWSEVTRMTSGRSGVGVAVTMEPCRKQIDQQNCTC
Compound,CC50 (Peritoneal macrophage [1]) [nM],Kd (Keap1/Nrf2) [nM],solubility at 24 h [2] [µg/mL],solubility at 24 h [3] [µg/mL],solubility at 24 h [4] [µg/mL],other results
CCCC(=O)Nc1ccc(S(=O)(=O)N(CC(N)=O)c2ccc(N(CC(N)=O)S(=O)(=O)c3ccc(OC)cc3)c3ccccc23)cc1,> 100000,> 10000,,,,
CCN1CCN(CCC(=O)Nc2ccc(S(=O)(=O)N(CC(N)=O)c3ccc(N(CC(N)=O)S(=O)(=O)c4ccc(OC)cc4)c4ccccc34)cc2)CC1.O=C(O)C(F)(F)F,,,135,105,1260,
CCC(=O)Nc1ccc(S(=O)(=O)N(CC(N)=O)c2ccc(N(CC(N)=O)S(=O)(=O)c3ccc(OC)cc3)c3ccccc23)cc1,> 50000,2810,,,,
COc1ccc(S(=O)(=O)N(CC(N)=O)c2ccc(N(CC(N)=O)S(=O)(=O)c3ccc(NC(=O)CN4CCOCC4)cc3)c3ccccc23)cc1,> 100000,1350,,,,
COc1ccc(S(=O)(=O)N(CC(N)=O)c2ccc(N(CC(N)=O)S(=O)(=O)c3ccc(NC(=O)CN4CCC(C)CC4)cc3)c3ccccc23)cc1,> 50000,6110,,,,
COc1ccc(S(=O)(=O)N(CC(N)=O)c2ccc(N(CC(N)=O)S(=O)(=O)c3ccc(NC(C)=O)cc3)c3ccccc23)cc1,> 50000,1760,,,,Activity (Peritoneal macrophage [5]): Active; Activity (Peritoneal macrophage [6]): Active; Activity (Peritoneal macrophage [7]): Active
COc1ccc(S(=O)(=O)N(CC(N)=O)c2ccc(N(CC(N)=O)S(=O)(=O)c3ccc(NC(=O)CCN4CCN(C(C)C)CC4)cc3)c3ccccc23)cc1,> 100000,710,,,,
CCN1CCN(CCC(=O)Nc2ccc(S(=O)(=O)N(CC(N)=O)c3ccc(N(CC(N)=O)S(=O)(=O)c4ccc(OC)cc4)c4ccccc34)cc2)CC1.Cl,,,151,47.7,1570,
CCN1CCN(CCCC(=O)Nc2ccc(S(=O)(=O)N(CC(N)=O)c3ccc(N(CC(N)=O)S(=O)(=O)c4ccc(OC)cc4)c4ccccc34)cc2)CC1,> 100000,580,,,,
Br.CCN1CCN(CCC(=O)Nc2ccc(S(=O)(=O)N(CC(N)=O)c3ccc(N(CC(N)=O)S(=O)(=O)c4ccc(OC)cc4)c4ccccc34)cc2)CC1,,,170,130,1460,
CCN1CCN(CCC(=O)Nc2ccc(S(=O)(=O)N(CC(N)=O)c3ccc(N(CC(N)=O)S(=O)(=O)c4ccc(OC)cc4)c4ccccc34)cc2)CC1.O=C(O)CC(O)(CC(=O)O)C(=O)O,,,129,72.5,1030,
COc1ccc(S(=O)(=O)N(CC(N)=O)c2ccc(N(CC(N)=O)S(=O)(=O)c3ccc(NC(=O)CCCN4CCN(C(C)C)CC4)cc3)c3ccccc23)cc1,> 100000,1480,,,,
COc1ccc(S(=O)(=O)N(CC(N)=O)c2ccc(N(CC(N)=O)S(=O)(=O)c3ccc(N)cc3)c3ccccc23)cc1,,,55.4,33.6,47.5,
COc1ccc(S(=O)(=O)N(CC(N)=O)c2ccc(N(CC(N)=O)S(=O)(=O)c3ccc(NC(=O)CCN4CCCCC4)cc3)c3ccccc23)cc1,> 100000,1420,,,,
COc1ccc(S(=O)(=O)N(CC(N)=O)c2ccc(N(CC(N)=O)S(=O)(=O)c3ccc(NC(=O)CN4CCN(C(C)C)CC4)cc3)c3ccccc23)cc1,> 100000,1450,,,,
COc1ccc(S(=O)(=O)N(CC(N)=O)c2ccc(N(CC(N)=O)S(=O)(=O)c3ccc(NC(=O)CN4CCSCC4)cc3)c3ccccc23)cc1,> 100000,8940,,,,
CCCCC(=O)Nc1ccc(S(=O)(=O)N(CC(N)=O)c2ccc(N(CC(N)=O)S(=O)(=O)c3ccc(OC)cc3)c3ccccc23)cc1,> 100000,> 10000,,,,
CC(=O)O.CCN1CCN(CCC(=O)Nc2ccc(S(=O)(=O)N(CC(N)=O)c3ccc(N(CC(N)=O)S(=O)(=O)c4ccc(OC)cc4)c4ccccc34)cc2)CC1,,,120,77.9,926,
CCN1CCN(CC(=O)Nc2ccc(S(=O)(=O)N(CC(N)=O)c3ccc(N(CC(N)=O)S(=O)(=O)c4ccc(OC)cc4)c4ccccc34)cc2)CC1,> 100000,480,,,,
COc1ccc(S(=O)(=O)N(CC(N)=O)c2ccc(N(CC(N)=O)S(=O)(=O)c3ccc(NC(=O)CCCN4CCSCC4)cc3)c3ccccc23)cc1,> 100000,2920,,,,
COc1ccc(S(=O)(=O)N(CC(N)=O)c2ccc(N(CC(N)=O)S(=O)(=O)c3ccc(NC(=O)CCN4CCC(C)CC4)cc3)c3ccccc23)cc1,> 100000,2080,,,,
CCN1CCN(CCC(=O)Nc2ccc(S(=O)(=O)N(CC(N)=O)c3ccc(N(CC(N)=O)S(=O)(=O)c4ccc(OC)cc4)c4ccccc34)cc2)CC1.O=C(O)/C=C\C(=O)O,,,122,80.5,1050,
COc1ccc(S(=O)(=O)N(CC(N)=O)c2ccc(N(CC(N)=O)S(=O)(=O)c3ccc(NC(=O)CN4CCCCC4)cc3)c3ccccc23)cc1,> 100000,6640,,,,
CCN1CCN(CCC(=O)Nc2ccc(S(=O)(=O)N(CC(N)=O)c3ccc(N(CC(N)=O)S(=O)(=O)c4ccc(OC)cc4)c4ccccc34)cc2)CC1.O=C(O)CCC(=O)O,,,130,76.9,1080,
Br.Br.COc1ccc(S(=O)(=O)N(CC(N)=O)c2ccc(N(CC(N)=O)S(=O)(=O)c3ccc(N)cc3)c3ccccc23)cc1,,,58.6,40.7,532,
COc1ccc(S(=O)(=O)N(CC(N)=O)c2ccc(N(CC(N)=O)S(=O)(=O)c3ccc(NC(=O)CCN4CCSCC4)cc3)c3ccccc23)cc1,> 50000,2910,,,,
COc1ccc(S(=O)(=O)N(CC(N)=O)c2ccc(N(CC(N)=O)S(=O)(=O)c3ccc(NC(=O)CCCN4CCOCC4)cc3)c3ccccc23)cc1,> 100000,1080,,,,
COc1ccc(S(=O)(=O)N(CC(N)=O)c2ccc(N(CC(N)=O)S(=O)(=O)c3ccc(NC(=O)CCN4CCOCC4)cc3)c3ccccc23)cc1,> 100000,1030,,,,Activity (Peritoneal macrophage [5]): Active; Activity (Peritoneal macrophage [6]): Active; Activity (Peritoneal macrophage [7]): Active
